Legend:
[1] = system: female albino mice (Ibm: MORO); assay: Operant conflict test for anxiolytic effect; type: in vivo; conditions: 10 mg/kg oral, 30 minutes prior to testing
LC132 receptors = conditions: cited from earlier work

Row | Molecule | punished lever-pressing [1] | unpunished responding [1] | inhibition of cyclic AMP formation (LC132 receptors)
1 | CN1C(=O)CN=C(c2ccccc2)c2cc(Cl)ccc21 [diazepam] | enhanced punished lever-pressing | some reduction of unpunished responding | –
2 | dynorphin A | – | – | weakly inhibited

— patent publication US20020082213A1 (priority 1996, published 2002)
